Test results reported in patent US7632413B2, “Process for treating a liquid medium using ultrasound” (Ashland Licensing and Intellectual Property LLC, priority 2002, dated 2009).

System: K562 cells
Assay: Annexin-V/PI assay of ultrasonically induced apoptosis in the presence of active oxygen scavengers
Assay type: cell-based, Human
Settings: L-histidine 10 mM and/or mannitol 100 mM; for percentage of cells displaying phosphatidylserine externalization: 5 hours post-treatment, mean ± SEM, 4 experiments
Description: Human leukemia cell lines (K562, Nalm-6, KG1a, and HL-60) obtained from the American Type Culture Collection (ATCC, Rockville, Md., USA) were grown in RPMI-1640 (BioWhittaker, Walkersville, Md., USA) supplemented with 10% fetal calf serum (Gibco, Grand Island, N.Y., USA) and 1% L-glutamine (Gibco). Leukemic cells were harvested, resuspended in phosphate-buffered saline (PBS, pH=7.2, Gibco), and immediately used for the experiment. Heparinized venous blood was obtained from healthy volunteers and leukemic patients. Mononuclear cells were separated by Ficoll-Hypaque gradient density centrifugation (International Medical Products, Brussels, Belgium). The following describes the ultrasonic treatment on the cells. Human leukemia cell lines (K562, HL-60, KG1a, and Nalm-6), primary leukemic cells, and normal mononuclear cells were treated by ultrasound at a frequency of 1.8 MHz during various exposure times at an acoustical power of 7 mW/mL and irradiation (ON/OFF) cycles of 5.5 ms/3 ms. During apoptosis, phosphatidylserine residues flip from the inside to the outside of the plasma membrane and this change can be detected using Annexin-FITC, which binds to the PS residues. The following describes an Annexin V binding assay that was performed. Flow cytometric analysis of Annexin-V-fluorescein isothiocyanate (FITC)-and propidium iodide (PI)-stained cells was performed using the kit purchased from Biosource International (Camarillo, Calif., USA) as recommended by the manufacturer. Data were presented as dot plots showing the change in mean fluorescence intensity of Annexin-V-FITC/propidium iodide (not shown). The following procedure was performed to determine the effect of active oxygen scavengers on the induction of apoptosis by high-frequency ultrasound. K562 cells were incubated with L-histidine (10 mM) and/or mannitol (100 mM). Some cells were treated by high-frequency ultrasound and others were not. Cell apoptosis was detected by an Annexin-V/PI assay.

Row | SMILES | percentage of cells displaying phosphatidylserine externalization (1 US treatment) | percentage of cells displaying phosphatidylserine externalization (3 US treatments) | inhibition at 100000 µM (Homo sapiens, K562, apoptosis induced by 3 successive ultrasound treatments) | percentage of cells displaying phosphatidylserine externalization (No US treatment) | inhibition of apoptosis (apoptosis induced by 3 successive ultrasound treatments)
1 | OC[C@@H](O)[C@@H](O)[C@H](O)[C@H](O)CO [Mannitol, mannitol] | 21 ± 5% | 30 ± 3% | 47% | 11 ± 4% | 
2 | N[C@@H](Cc1c[nH]cn1)C(=O)O [Histidine, L-histidine] | 24 ± 8% | 36 ± 11% |  | 15 ± 5% | 43%
